This note sets out measurements from patent publication US11952365B2, “Anti-viral compounds” (Aligos Therapeutics, Inc., priority 2020, dated 2024).

Like-named read-outs stand apart in the source and are kept apart here.

For one data set, the target named is 3CLpro (Severe acute respiratory syndrome coronavirus 2, UniProt P0DTD1). The data set can be described thus: SARS-CoV-2 3CLpro protease assay (duplex, SAMDI-MS). The class given is biochemical. The conditions noted are these: 3CLpro, 30 mins preincubation, class symbols; read-out: SARS-Cov-2 IC50. Also noted: For the duplex assay, 3CLpro and HRV3C was added.
A further data set concerns the target HRV3C (Human rhinovirus 14, UniProt P03303). The data set can be described thus: HRV3C protease assay (duplex, SAMDI-MS). In kind it is biochemical, HRV. As to conditions: HRV3C, 30 mins preincubation, read-out: HRV IC50. The essentials: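 Enzyme preincubated 30 min with compound at ambient temperature, then both biotinylated peptide substrates added (duplex with 3CLpro); 30 min reaction quenched with 0.5% formic acid (final). Product read by SAMDI-MS as product/internal-standard AUC ratio; IC50 from four-parameter fit.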

Data set [1] in a line: Cytotoxicity plates without OC43 virus (cell-titer-glo). The class given is cell-based, human. As to conditions: human; HeLa cells without OC43 virus, class symbols. The essentials: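 HeLa cells seeded overnight, then treated with serially diluted compounds in 2% FBS EMEM, uninfected, in parallel with the OC43 antiviral plates. Incubated 6 days at 33 °C; viability read by CellTiter-Glo luminescence.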

A short description of data set [2]: in vitro. As to conditions: human.
In data set [3] the test system is SARS-CoV-2-GHB-03021/2020. The data set can be described thus: microbe, parasite or virus in culture. In kind it is cell-based. The conditions noted are these: Severe acute respiratory syndrome coronavirus 2, Vero C1008, 96 h; read-out: VeroE6 + CP (EC50).
Data set [4] relates to human beta-coronavirus OC43. In words: microbe, parasite or virus in culture. The class given is cell-based. As to conditions: Betacoronavirus 1, OC43, HeLa, 144 h, OC43 in HeLa cells, 6 days at 33° C., class symbols; read-out: EC50.
The nature of data set [5]: in vitro. As to conditions: African green monkey, VeroE6 + CP (CC50), Vero E6-eGFP cells with CP-100356, absence of virus, MTS.
The subject of data set [6] is SARS-CoV-2-GHB-03021/2020. In words: SARS-CoV-2 Infection Model in Huh7 Cells. As to conditions: Severe acute respiratory syndrome coronavirus 2, Huh-7, 96 h, SARS-CoV-2, day 4 p.i., MTS, class symbols. In kind it is cell-based.
For another data set, the target named is T1, human cathepsin L (Homo sapiens, UniProt P07711).
T1 construct: purchased R&D Systems
In words: cathepsin L assay. The class given is biochemical. The conditions noted are these: 10 pM human cathepsin L, Z-FR-AMC 2 μM, class symbols. The essentials: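 Human cathepsin L at 10 pM was preincubated 30 min with compound, then reaction started with Z-FR-AMC (2 μM final). Fluorescence (355/460 nm) read every 2 min for 30 min; IC50 from four-parameter curve fit.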

The term IC50 denotes the concentration needed to halve the response being measured. As usually defined, the EC50 is the midpoint of the concentration-response curve. As for `O=C(NCc1ccccc1)C(=O)C(C[C@@H]1CCNC1=O)NC(=O)[C@@H]1C[C@@H](C(F)(F)F)CN1C(=O)c1cc2ccccc2[nH]1` (stereo partly drawn) [Compound 19, N-benzyl-3-[[(2S,4R)-1-(1H-indole-2-carbonyl)-4-(trifluoromethyl)pyrrolidin-2-yl]formamido]-2-oxo-4-[(3S)-2-oxopyrrolidin-3-yl]butanamide], the IC50 on 3CLpro was in the range of 200 to 2000 nM; on HRV3C (class symbols) it was 2 to 20 µM; against human cathepsin L, 0.1 to 1 µM. Moreover, in [1], the CC50 at 6 days is > 10 µM. Also, the values for the CC50 in “in vitro [2]” and in “in vitro [5]” (numeric bounds) were > 10 µM and > 100 µM, respectively. The figures for the EC50 in data set [3], in data set [4] and in [6] were 1000 to 10000 nM, 100 to 1000 nM and 1000 to 10000 nM, respectively.

As for `N#C[C@H](C[C@@H]1CCNC1=O)NC(=O)[C@@H]1[C@H]2CCC[C@H]2CN1C(=O)c1cc2c(Cl)ccc(Cl)c2[nH]1` [Compound 167, (1S,3aR,6aS)—N-[(1S)-1-cyano-2-[(3S)-2-oxopyrrolidin-3-yl]ethyl]-2-(4,7-dichloro-1H-indole-2-carbonyl)-hexahydro-1H-cyclopenta[c]pyrrole-1-carboxamide], the 50% inhibitory concentration (IC50) was 200 to 2000 nM at 3CLpro, > 10 µM at HRV3C (bound) and ≥ 10 µM against human cathepsin L. In addition, in data set [1], the CC50 at 6 days is > 10 µM. Also, the CC50 is > 10 µM in the data set “in vitro [2]” and > 50 µM in “in vitro [5]” (numeric bounds). For the same compound, the EC50 in [3] is < 1000 nM; in data set [4] it was 100 to 1000 nM; in [6], < 1000 nM.

As to `COc1cccc2[nH]c(C(=O)N3C[C@@H]4CCC[C@@H]4[C@H]3C(=O)N[C@@H](CC3CC(C)(C)NC3=O)C(=O)COCc3ccccc3)cc12` (relative stereo) [Compound 70A_1, (1S,3aR,6aS)—N-[(2S)-4-(benzyloxy)-1-[(3R*)-5,5-dimethyl-2-oxopyrrolidin-3-yl]-3-oxobutan-2-yl]-2-(4-methoxy-1H-indole-2-carbonyl)-hexahydro-1H-cyclopenta[c]pyrrole-1-carboxamide], the values for the IC50 on 3CLpro, on HRV3C (class symbols) and at human cathepsin L were 20 to 200 nM, 2 to 20 µM and ≥ 10 µM, respectively. Further, in [1], the CC50 at 6 days was > 10 µM. Also, the CC50 in the data set “in vitro [2]” and in the data set “in vitro [5]” (class symbols) was > 10 µM in each case. In addition, the EC50 was 1000 to 10000 nM in data set [3], < 100 nM in data set [4] and 1000 to 10000 nM in [6].

`O=C(NCCOCC1CCCC1)C(=O)[C@H](C[C@@H]1CCNC1=O)NC(=O)[C@@H]1[C@H]2CCC[C@H]2CN1C(=O)c1cc2c(Cl)cc(Cl)cc2[nH]1` [Compound 174]: the IC50 at 3CLpro was in the range of 20 to 200 nM; at HRV3C (class symbols), 2 to 20 µM; against human cathepsin L it was 1 to 10 µM. In data set [1], the CC50 at 6 days is > 10 µM. Also, the CC50 in the data set “in vitro [2]” and in “in vitro [5]” (class symbols) was 1 to 10 µM throughout. Further, the EC50 in [3] is < 1000 nM; in data set [4], 100 to 1000 nM; in [6], < 1000 nM.

As to `CC(C)(C)C(=O)OCC(=O)[C@H](C[C@@H]1CCNC1=O)NC(=O)[C@@H]1[C@H]2CCC[C@H]2CN1C(=O)c1cc2c(Cl)cc(Cl)cc2[nH]1` [Compound 132, (3S)-3-{[(1S,3aR,6aS)-2-(4,6-dichloro-1H-indole-2-carbonyl)-hexahydro-1H-cyclopenta[c]pyrrol-1-yl]formamido}-2-oxo-4-[(3S)-2-oxopyrrolidin-3-yl]butyl 2,2-dimethylpropanoate], the IC50 is 200 to 2000 nM at 3CLpro, > 10 µM at HRV3C (bound) and ≥ 10 µM at human cathepsin L. Further, the CC50 at 6 days in data set [1] is 1 to 10 µM. Also, the CC50 in “in vitro [2]” and in the data set “in vitro [5]” (class symbols) was > 10 µM in each case. Moreover, the EC50 in [3] is < 1000 nM; in data set [4], < 100 nM; in [6] it was < 1000 nM.

With `COc1cccc2[nH]c(C(=O)N3C[C@@H]4CCC[C@@H]4[C@H]3C(=O)N[C@@H](C[C@@H]3CCNC3=O)C(=O)C(=O)NCCOCc3ccccc3)cc12` [Compound 101], the IC50 was < 20 nM at 3CLpro, 0.2 to 2 µM on HRV3C (class symbols) and ≥ 10 µM at human cathepsin L. Also, the CC50 at 6 days in [1] is > 10 µM. The CC50 was > 50 µM in the data set “in vitro [2]” and > 10 µM in the data set “in vitro [5]” (class symbols). The values for the EC50 in data set [3], in [4] and in data set [6] were 1000 to 10000 nM, 100 to 1000 nM and 1000 to 10000 nM, respectively.
